Here are results for 6 molecules from US9072729B2, “Method for treating fibrosis and cancer with imidazolium and imidazolinium compounds” (Agency for Science, Technology and Research, priority 2008, dated 2015).

In general, pIC50 refers to the negative decadic logarithm of the IC50, by convention in mol/L.

pIC50: −log10 of the molar value. Read-outs that look alike come from different tables or passages of the source.

What all share (format): cell-based, rat
For assay [1], the system named is GPx. The experiment in a line: Glutathione peroxidase (GPx) activity assay in treated cells. The note with it: 0.2% (v/v) DMSO vs untreated. The protocol: (§1) FIG. 4. Effect of DBZIM and TDBZIM on GPx, CAT, SOD and GST. DBZIM affected (a) GPx activity and (c) CAT activity in a dosage-dependent manner. TDBZIM suppressed (b) GPx activity and (d) CAT activity. (e) DBZIM and (f) TDBZIM had little effect on SOD activity. (g) DBZIM induced GST activity. HSC T6 cells were treated with compounds of various concentrations for 48 h, and homogenized by sonication (60% frequency for 30 s) in PBS (pH 7.4, 1 mM of EDTA) for GPx, GST and CAT assays, or in 20 mM of HEPES buffer containing 1 mM of EGTA, 210 mM of mannitol and 70 mM of sucrose (pH 7.2) for SOD assay. Enzyme activity was normalized against total protein. DBZIM was dissolved in DMSO, and TDBZIM was dissolved in H2O. The data were presented as mean and SEM, N=6, *^aP<0.05, *^bP<0.01, *^cP<0.005, and *^dP<0.0005, when compared to the vehicle control.
(§2) Activity levels of three anti-oxidant enzymes, GPx, CAT and SOD, were determined using assay kits from Cayman Chemical. To assay GPx and CAT activities, protein samples were harvested in ice-cold PBS containing 1 mM of EDTA. To assay SOD activity, protein samples were prepared in 20 mM of N-(2-hydroxyethyl)-piperazine-N′-2-ethanesulfonic acid (HEPES) buffer containing 1 mM of ethylene glycol-bis(2-aminoethylether)-N,N,N′,N′-tetraacetic acid (EGTA), 210 mM of mannitol and 70 mM of sucrose. Protein content was determined by BCA assay.
GPx activity was indirectly measured by a coupled reaction with GSH reductase. Oxidized GSH, produced upon reduction of H2O2 by GPx, is recycled to its reduced state by glutathione reductase (GR) and nicotinamide adenine dinucleotide phosphate (NADPH). The oxidation of NAPDH is proportional to the GPx activity, and can be measured as a decrease in absorbance at 340 nm. GPx activity was expressed as nmol/min/mg protein.

Assay [2] has as its system CAT. In words: Catalase (CAT) activity assay in treated cells. The note with it: 0.2% (v/v) DMSO vs untreated. The protocol: FIG. 4. […] Enzyme activity was normalized against total protein. DBZIM was dissolved in DMSO, and TDBZIM was dissolved in H2O. The data were presented as mean and SEM, N=6, *^aP<0.05, *^bP<0.01, *^cP<0.005, and *^dP<0.0005, when compared to the vehicle control.
Activity levels of three anti-oxidant enzymes, GPx, CAT and SOD, were determined using assay kits from Cayman Chemical. To assay GPx and CAT activities, protein samples were harvested in ice-cold PBS containing 1 mM of EDTA. […] Protein content was determined by BCA assay.
CAT activity was determined based on reaction of the enzyme with methanol in the presence of H2O2. The formaldehyde produced was measured spectrophotometrically at 540 nm using Purpald as the chromogen. CAT activity was expressed as nmol/min/mg protein.

The test system of assay [3] is HSC-T6 cells. The experiment in a line: Glutathione (GSH) and GSSG assays. The settings on record: 0.2% (v/v) DMSO vs untreated. The protocol:
FIG. 3. […] (c) DBZIM and (d) TDBZIM both suppressed cellular GSSG (the oxidation product of GSH). (e) DBZIM and (f) TDBZIM both enhanced the GSH/GSSG ratio. HSC-T6 cells were incubated with compounds of various concentrations for 48 h, and assayed for the total GSH and GSSG amounts. The GSH/GSSG ratio was calculated as (GSH−GSSG)/GSSG. The GSH and GSSG amounts were normalized against the total protein. Note that DBZIM was dissolved in DMSO, and TDBZIM was dissolved in H2O. The data were presented as mean and SEM, N=6, *^aP<0.05, *^bP<0.01, *^cP<0.005, and *^dP<0.0005, when compared to the vehicle control.
Total cellular GSH and GSSG levels were determined by using assay kits from Cayman Chemical (Ann Arbor, Mich., USA) following the manufacturer's instructions. Briefly, HSC-T6 cells treated with DBZIM, TDBZIM, NAC, or EGCG were scalped and homogenized in phosphate buffered saline (PBS) by sonication at 60% frequency for 30 s, and the supernatant was collected after centrifugation at 16,000×g for 10 min at 4° C. Protein content of the samples was determined by bicinchonicic acid (BCA) assay.
For GSH assays, the protein sample was deproteinated by metaphosphoric acid (Aldrich, Catalog No. 23927-5), and the pH was adjusted by triethanolamine (Aldrich, Catalog No. T5830-0) according to the manual. The sample was ready for assaying total GSH including both the reduced and oxidized forms. Quantification of GSSG, exclusive of GSH, was performed by first derivatizing GSH with 2-vinylpyridine and assaying separately. Colorimetric signal was recorded at 405 nm with a Tecan Safire II plate reader. The levels of GSH or GSSG were determined as nmol/μg protein.

The test system of assay [4] is SOD. In words: Superoxide dismutase (SOD) activity assay in treated cells. The settings on record: 0.2% (v/v) DMSO vs untreated; not statistically significant. The protocol: as §1, §2
Total SOD, including all three types of SOD (Cu/Zn-, Mn- and Fe-SOD), was quantified using a tetrazolium salt to detect superoxide radicals generated by xanthine oxidase and hyposanthine. […] SOD activity was expressed as U/mg protein.

Assay [5] deals with GFAP. The experiment in a line: Real-time RT-PCR of GFAP mRNA in HSC T6 cells. The note with it: 48 h; DPIM 2 mM, AMIM 50 μM, TMPHIM 50 μM, DBZBIM 100 μM. The protocol:
(§3) FIG. 6. (a) DBZIM and (b) TDBZIM suppressed the mRNA expression of HSC activation markers (GFAP and SMAA) and fibrotic endpoints (col1a1 and fibronectin) in a dosage-dependent manner. […] The ΔΔCt method was used for relative quantification with vehicle control sample being the calibrator. The data were presented as mean and SEM, N=6, *^aP<0.05, *^bP<0.01, *^cP<0.005, and *^dP<0.0005, when compared to the vehicle control. FIG. 7. DBZIM (100 μM) and TDBZIM (100 μM) suppressed (a) GFAP, (b) SMAA, (c) col1a1 and (d) fibronectin mRNA expression in a time-dependent manner. HSC T6 cells were treated with DBZIM and TDBZIM, and assayed after 8, 24 and 48 h. […] FIG. 14. […] (50 μM), […] (50 μM), […] (10 μM) and DBZBIM (100 μM) were dissolved in DMSO with a final DMSO concentration of 0.2% (v/v). DPIM (2 mM), EGCG (25 μM) and DBZIM (100 μM) were dissolved in H2O. β-actin was used as the normalization gene; its expression was constant under the experimental conditions. Relative quantification was normalized against the respective vehicle control. The data were presented as mean and SEM, N=6, *^aP<0.05, *^cP<0.005, and *^dP<0.0005, when compared to the vehicle control. Total RNA was isolated using NucleoSpin RNAII isolation kit ([…], Germany), and quantified by ND-100 spectrophotometer (Nanodrop Technologies, DE, USA). The details of real-time RT-PCR were reported elsewhere (Zhang et al. 2006). Briefly, it was a two-step real-time RT-PCR using Taqman chemistry. Total RNA was first reverse transcribed to cDNA, and real-time PCR was run and detected in ABI 7500 Fast Real-Time PCR System (Applied Biosystems, CA, USA). Primers and probes for rat GFAP, SMAA, collagen Ia1, fibronectin, TGF-β1, TGF-β receptor I (TGFβ RI) and IL-6 were ordered from Taqman's assay-on-demand database. Rat β-actin was used as normalization gene, and its expression level was constant (CT difference was <±0.5) throughout the experimental settings in this study. Relative quantification of target mRNA was calculated using comparative threshold cycle method (ΔΔCT) as described in User Bulletin #2 (ABI Prism 7700 Sequence Detection System). Relative quantification was given by 2^-ΔΔCT to express the up-regulation or down regulation of the target gene under the treatments compared to the control.

In assay [6] the test system is HSC T6 cells. The experiment in a line: MTS based proliferation assay (cytotoxicity) on cultured HSC-T6 cells. The settings on record: read-out: IC50 (toxicity on T6 cells). The protocol: FIG. 1. Cytotoxicity of (a) DBZIM and (b) TDBZIM. […] The signal was normalized against a vehicle control treatment (0 μM of compound). The data were obtained from four independent experiments, and presented as mean and standard error or mean (SEM), *^aP<0.05, *^bP<0.01 and *^cP<0.005.
Firstly we assessed the cytotoxicity of DBZIM and TDBZIM on cultured HSC-T6 cells using a 3-(4,5-dimethylthiazol-2-yl)-5-(3-carboxymethoxyphenyl)-2-(4-sulfophenyl)-2H-tetrazolium (MTS) based proliferation assay kit (Promega, Wis., USA). […]

For assay [7], the system named is SMAA. In words: Real-time RT-PCR of SMAA mRNA in HSC T6 cells. The note with it: 48 h; DBIM 1 mM, DPIM 2 mM, AMIM 50 μM, TMPHIM 50 μM. The protocol:
as §3
(Real-time PCR tracks product formation cycle by cycle.)

The test system of assay [8] is fibronectin. The experiment in a line: Real-time RT-PCR of fibronectin mRNA in HSC T6 cells. The settings on record: 48 h; DPIM 2 mM, TMPHIM 50 μM, DBZIM 100 μM. The protocol: as §3
Assay [9] deals with col1a1. In words: Real-time RT-PCR of col1a1 mRNA in HSC T6 cells. The settings on record: 48 h; DBIM 1 mM, DPIM 2 mM, TMPHIM 50 μM, DPPHIM 10 μM. The protocol: as §3
Where [10] appears, read: Rattus norvegicus, HSC-T6, HSC T6 cells.

Take `C[S+](C)[O-]` [DMSO, dimethylsulfoxide]: the “GPx activity, of the control” value in assay [1] was determined as 2.62 times. Moreover, the “CAT activity, of the control” value in [2] stood at 1.7 fold. Besides, in assay [3], the “GSH/GSSG ratio, of the control” value came to 17%; the “GSSG amount, of the control” value turned out to be 4.4 fold; the “total cellular GSH level, of the control” value is on record as 74%. The “increase of SOD activity” value in assay [4] amounted to 10%.
As to `F[B-](F)(F)F.c1c[n+](C23CC4CC(CC(C4)C2)C3)cn1C12CC3CC(CC(C3)C1)C2` [AMIM, 1,3-bis(1-adamantyl)imidazolium tetrafluoroborate], the “suppression of GFAP mRNA” value in [5] came out at 69%. In addition, the pIC50 in assay [6] (setting [10]) was 3.78. Also, the “suppression of SMAA mRNA” value in assay [7] came out at 23%.
As for “1,3-bis(2,4,6-trimethylphenyl)-imidazolinium chloride [TMPHIM]”, the “suppression of GFAP mRNA” value in [5] is 66%. The “suppression of fibronectin mRNA” value in assay [8] is 29%. In addition, the pIC50 in assay [6] (HSC T6 cells) was 3.96. In addition, the “suppression of SMAA mRNA” value in assay [7] is 49%. The “suppression of col1a1 mRNA” value in [9] was determined as 62%.
Regarding `[Br-].c1ccc(Cn2c[n+](Cc3ccccc3)c3ccccc32)cc1` [DBZBIM, 1,3-bisbenzyl-benzimidazolium bromide], the “suppression of GFAP mRNA” value in assay [5] turned out to be 50%. Moreover, the pIC50 in assay [6] (setting [10]) was 3.51.
On to “1,3-bis(2,6-diisopropyl-phenyl)-imidazolinium chloride [DPPHIM]”, for which the pIC50 in [6] (HSC T6 cells) is 4.47. For the same molecule, the “suppression of col1a1 mRNA” value in assay [9] is on record as 47%.
Consider “1,3-di-tert-butylimidazoliniumtetrafluoroborate [DBIM]”, for which, in assay [6] (HSC T6 cells), the pIC50 is 2.52 to 2.70. For the same molecule, the “suppression of SMAA mRNA” value in assay [7] is listed as 49%. In addition, the “suppression of col1a1 mRNA” value in [9] stood at 58%.
